Like-named read-outs stand apart in the source and are kept apart here.
Columns and labels:
SARS-CoV-2 nsp14 [1] = target: T1, SARS-CoV-2 nsp14 (Severe acute respiratory syndrome coronavirus 2, UniProt P0DTD1); format: biochemical; details: for Km: increasing molar equivalents of Au(I); for IC50: read-out: IC50 (± SD) MTase
[2] = target: SARS-CoV-2 nsp14/nsp10 complex (Severe acute respiratory syndrome coronavirus 2, UniProt P0DTD1); test: FRET-based exoribonuclease (ExoN) activity assay; format: biochemical; details: for IC50: nsp14/nsp10 pre-incubated with compound 1 h, n = 3, read-out: IC50 (± SD) ExoN
SARS-CoV-2 nsp14 [3] = target: T1, SARS-CoV-2 nsp14; test: Circular dichroism spectroscopy of nsp14 (BeStSel); details: CD deconvoluted by BeStSel; around 65% in untreated nsp14
SARS-CoV-2 nsp10 = SARS-CoV-2 nsp10 (Severe acute respiratory syndrome coronavirus 2, UniProt P0DTD1); test: Metal displacement analysis (equilibrium dialysis, ICP-MS), nsp10; format: binding
Source text: (§1) Since nsp14 and nsp10 have 3 and 2 zinc-finger motifs respectively, playing structural roles and as well as being important to the functions of nsp14/nsp10 complex. The soft nature of Au(I) makes it very likely to bind to the thiolates/nitrogen atoms in these cysteine/histidine-rich zinc-binding sites. To verify this, we then investigated the binding of Au(I) to the native nsp14 and nsp10 using equilibrium dialysis and determined the metal contents by inductively coupled plasma mass spectrometry (ICP-MS). […] Similarly, ca. 1.84 ± 0.66 mol equiv of Au(I) bound to per nsp10, accompanied by ca. 1.89 ± 0.28 mol equiv of Zn(II) release. […] In addition, since the ExoN activity of nsp14 is largely stimulated by nsp10, and nsp10 − nsp14 intermolecular interaction involves residues around the zinc finger of nsp10 [33, 34], we also examined the influence of Au(I) binding to nsp10 on the ExoN activity of nsp14.
(§2) Au(I) binding and Zn(II) release on nsp10 and nsp14 were determined by Inductively Coupled Plasma Mass Spectrometry (ICP-MS) on Agilent 7700 × ICP-MS (Agilent Technologies). […] Dialysis tubes loaded with 100 μL Zn-bound proteins (5 μM for nsp14 and nsp13 and 20 μM for nsp10) or protein buffer were placed into 50 mL dialysis buffer in the presence of different concentrations of Au(I) compounds (as Au(PEt3)Cl) with mild shaking at 18 °C overnight. The protein concentration was measured by bicinchoninic acid (BCA) assay, and the metal concentration of solution both inside and outside the dialysis tubes was determined by ICP-MS.

SARS-CoV-2 nsp14 [4] = target: T1, SARS-CoV-2 nsp14; test: EMSA of nsp14 binding to dsRNA ExoN substrate; details: 4 µM nsp14, 0–40 µM drug, 200 nM dsRNA
Source text: Next, we explored the inhibition mechanism of nsp14/nsp10 by Au(I). We first investigated the inhibition mode of Au(I) on the dual activities of nsp14, for which we selected Au(PEt3)Cl as a showcase. To explore the influence of Au(I) on the kinetics of the nsp14/nsp10 ExoN activity, a 20-nucleotide 5′-dU overhang conjugated to a Cy3/BHQ2 pair was used as an RNA duplex substrate. Then, the reciprocals of the reaction velocity and the concentration of the two substrates were used to plot the Lineweaver–Burk plot. And the Michaelis–Menten constant (Km) and the maximum reaction rate (Vmax) were calculated by nonlinear fitting to the Michaelis − Menten equation.
RNA-binding capability of nsp14 was determined by EMSA. […] For the bismuth(III) and Au(I) addition assays, nsp14 (4 µM) was pre-incubated with various concentrations of drugs (0, 1, 2, 4, 8, 20, 40 µM) in HEPES buffer for 2 h on ice before the RNA-binding assays before incubating with 200 nM of dsRNA at room temperature for 15 min. A 20 µL of the reaction mixture was then loaded onto 6% native-polyacrylamide gels and electrophoresed in 1xTBE buffer. Electrophoresis was carried out at 100 V for 50 min. Gels were subsequently stained by GelRed (Sigma Aldrich) for 5 min at room temperature and visualized through iBright™ CL750 Imaging System (Thermo Fisher Scientific).
ExoN substrates. Relative band intensities were quantified by ImageJ. […]

SARS-CoV-2 nsp14 [5] = target: T1, SARS-CoV-2 nsp14; test: Metal displacement analysis (equilibrium dialysis, ICP-MS), nsp14; format: binding
Source text: as §1, §2

SARS-CoV-2 nsp14 [6] = target: T1, SARS-CoV-2 nsp14; test: Size-exclusion chromatography of nsp14; details: 0−10 molar equivalents; monomer peak 9.6 mL decreases, peak at ca. 9.1 mL appears
[7] = tested on: SARS-CoV-2 Omicron BA.5 in VeroE6-TMPRSS2 cells; test: Plaque reduction assay; format: cell-based; details: VeroE6-TMPRSS2, n = 2, read-out: EC50, inhibition of SARS-CoV-2 virus replication
nsp14 (ExoN/N7-MTase) = nsp14 (ExoN/N7-MTase) (SARS-CoV-2 isolate Wuhan-Hu-1, UniProt P0DTD1 5926-6452); test: EMSA; no Au(I); 200 nM dsRNA, nsp14 0-8 uM; details: protein: recombinant; tags: N-terminal 6xHis, removed with thrombin; label: 5'-Cy3 on top strand; labels in EMSA not restated
[8] = nsp14 pre-incubated with compound 1 h, n = 3

CCP(CC)CC.[Au+].[Cl-] [Au(PEt3)Cl, chloro(triethylphosphine)gold(I)]
Vmax, G(5′)ppp(5′)A RNA-dependent MTase kinetics (SARS-CoV-2 nsp14 [1]): 0.12 µM/min
Vmax, SAM-dependent MTase kinetics (SARS-CoV-2 nsp14 [1]): 0.09 µM/min
mode of inhibition of MTase activity (SARS-CoV-2 nsp14 [1]; SAM- and GpppA-RNA-dependent kinetics): noncompetitive
Km (SARS-CoV-2 nsp14 [1]; read-out: Km, G(5′)ppp(5′)A RNA-dependent MTase kinetics): 1.18 ± 0.02 µM
Km (SARS-CoV-2 nsp14 [1]; read-out: Km, SAM-dependent MTase kinetics): 1.62 ± 0.02 µM
IC50 (SARS-CoV-2 nsp14 [1]; [8]): 4500 ± 980 nM
mode of inhibition of ExoN activity ([2]; Lineweaver–Burk / Michaelis–Menten analysis): noncompetitive
Vmax, ExoN kinetics ([2]; decreased from 2.7 with different molar equivalents of Au(I)): 0.5 nM/min
IC50 [2]: 380 ± 40 nM
helix content in nsp14 after treatment (SARS-CoV-2 nsp14 [3]): 36%
Au(I) bound per nsp10 (SARS-CoV-2 nsp10; equilibrium dialysis, ICP-MS): ca. 1.84 ± 0.66 mol equiv
Zn(II) release from nsp10 (SARS-CoV-2 nsp10; equilibrium dialysis, ICP-MS): ca. 1.89 ± 0.28 mol equiv
maximal binding capacity (Bmax), nsp10 (SARS-CoV-2 nsp10; fit to specific binding plot): 1.75 ± 0.60
Kd (SARS-CoV-2 nsp10; fit to specific binding plot, read-out: dissociation constant (Kd), nsp10): 6550 ± 770 nM
effect on formation of the nsp14−RNA complex (SARS-CoV-2 nsp14 [4]): negligible effects
Au(I) bound per nsp14 (SARS-CoV-2 nsp14 [5]; equilibrium dialysis, ICP-MS): ca. 2.95 ± 0.23 mol equiv
Zn(II) release from nsp14 (SARS-CoV-2 nsp14 [5]; equilibrium dialysis, ICP-MS): ca. 2.56 ± 0.21 mol equiv
maximal binding capacity (Bmax), nsp14 (SARS-CoV-2 nsp14 [5]; fit to specific binding plot): 3.10 ± 0.32
Kd (SARS-CoV-2 nsp14 [5]; fit to specific binding plot, read-out: dissociation constant (Kd), nsp14): 6540 ± 330 nM
effect on quaternary structure of nsp14 (SARS-CoV-2 nsp14 [6]): partial oligomerization

[Cl][Au] [AuCl, gold(I) chloride]
IC50 (SARS-CoV-2 nsp14 [1]; [8]): 910 ± 10 nM
IC50 [2]: 5780 ± 310 nM

O=S(=O)([O-])[S-].O=S(=O)([O-])[S-].[Au+].[Na+].[Na+].[Na+] [Na3Au(S2O3)2, gold(I) sodium thiosulfate]
IC50 (SARS-CoV-2 nsp14 [1]): 1770 ± 10 nM
IC50 [2]: 1710 ± 90 nM

[Cl][Au][PH]12CN3CN(CN(C3)C1)C2 [Urotropine-Au-Cl]
ExoN enzyme activity remaining ([2]; 50 mol equiv of compound): 0.68%

CC(=O)OC[C@H]1O[C@@H]([S-])[C@H](OC(C)=O)[C@@H](OC(C)=O)[C@@H]1OC(C)=O.CCP(CC)CC.[Au+] [auranofin]
EC50 [7]: 730 ± 210 nM

(1-(adamantan-1-yl)thiourea)-(triethylphosphine)-gold(I) [Au-amantadine]
IC50 (SARS-CoV-2 nsp14 [1]; [8]): 8160 ± 180 nM
IC50 [2]: 1570 ± 120 nM

B1: ExoN substrate dsRNA (dsRNA)
RNA 1: GGUAGUAAUCCGCUC
RNA 2: UUUUUUUUUUUUUUUUUUUUGAGCGGAUUACUACUACC
binding result (nsp14 (ExoN/N7-MTase)): binds
